Where two headings read alike, the source gives them in different places. Marks after values point to notes of the source that are not given here.
How the values were obtained:
[1] = cited from earlier work
[2] = Capillary bleeding time (Surgicutt device); format: in vivo, healthy male subjects; details: for maximum capillary bleeding time (CBT): part 2
Procedure: The bleeding time was assessed by single measurements on the forearm using the Surgicutt® Bleeding Time Device (Product Number SUB50, International Technidyne, Edison, NJ, USA). Using a Surgicutt device, a standardized incision of 5 mm length and 1 mm depth was made in the skin. Every 30 s, the blood flow was wicked away cautiously with filter paper, so that the platelet plug remained intact, until the bleeding stopped. Normal bleeding time was under 8 min. For the CBT individual listings including the baseline value, the maximum value of the post-dose measurements, and the corresponding time of the maximum value were provided.

[3] = Plasma pharmacokinetics (HPLC-MS/MS) in open-label drug–drug interaction trial
Procedure: The treatment phase was divided into three separate parts, each with a different set of subjects. Part 1 (pilot study) was an open-label, multiple-dose (for dabigatran etexilate) and single-dose (for clopidogrel), fixed-sequence study. A single dose of clopidogrel 300 mg was given in addition to dabigatran etexilate 150 mg bid in steady state (Table 1). Part 2 (main study) was a randomized, open-label, multiple-dose, crossover study, with three periods of up to 5 days separated by washout periods of at least 14 days. The test treatment consisted of a clopidogrel 300 mg loading dose on day 1, followed by a 75 mg dose on day 2, then clopidogrel 75 mg qd in combination with dabigatran etexilate 150 mg bid on days 3–5 (Table 1). Part 3 (main study) was an open-label, multiple-dose (for dabigatran etexilate) and single-dose (for clopidogrel), fixed-sequence study. A single dose of clopidogrel 600 mg was given alone or in addition to dabigatran 150 mg bid at steady state (Table 1).
Although there are no reported interactions of food with dabigatran etexilate or clopidogrel, the morning medication was administered with about 240 mL of water following an overnight fast of at least 10 h, and no food was allowed until 4 h after drug administration. According to the twice-daily regimen dabigatran etexilate was similarly administered again 12 h later. Subjects were not allowed to lie down during the 2 h following drug administration, and water was limited for 1 h before and after drug administration. On dosing days a light non-standardized breakfast was given 1 h after morning drug administration. On profile days, no food was given until 4 h after administration. No concomitant therapy was allowed during the study, except for prophylactic thyroid hormone replacement and for symptomatic therapy of adverse events (AEs) in need of treatment.
For PK parameter evaluations, blood samples were taken for the determination of plasma concentrations of free, nonconjugated dabigatran, total dabigatran (after alkaline cleavage of conjugates), and the prodrug dabigatran etexilate, and of clopidogrel and SR26334.
Blood samples were taken before and at specified intervals up to 24 h after the morning clopidogrel dose, and before and up to 24 h after the morning and evening dabigatran etexilate dose. Timings of PK/PD sampling are shown in Supplementary Table 1.
Blood samples (∼2.7 mL for dabigatran and ∼4.0 mL for clopidogrel) were collected into tubes containing potassium ethylenediaminetetraacetic acid for PK analysis. Samples were centrifuged, and the resulting plasma samples were separated and stored at −70°C or below.
Plasma concentrations of free, nonconjugated dabigatran; total dabigatran (sum of free and conjugated dabigatran measured after alkaline cleavage of conjugates); the prodrug dabigatran etexilate; clopidogrel; and SR26334 were determined by validated high-performance liquid chromatography tandem mass spectrometry (HPLC-MS/MS) at AAI Pharma Deutschland (Neu-Ulm, Germany). The calibration curves for free and total dabigatran covered a range from 1.00 to 400 ng/mL plasma in undiluted samples. […] Maximum imprecision and inaccuracy for quality control samples at concentrations of 3, 30, and 320 ng/mL were 6.62 and +5.86%, respectively. For the prodrug, maximum imprecision and inaccuracy were 6.63 and +2.83%, respectively.
Calibration curves for clopidogrel and SR26334 covered concentration ranges of 0.01–10 ng/mL and 0.02–20 μg/mL, respectively, with an inaccuracy generally below 4% and imprecision below 9%. For blood coagulation parameters aPTT, ECT, and TT (PD analyses), ∼3 mL of blood were collected in sodium citrate monovettes at the time points indicated for PK analyses. The blood samples were centrifuged, frozen, and stored at −20°C or below.

[4] = test system: blood coagulation parameters (aPTT, ECT, TT); experiment: Blood coagulation parameters aPTT, ECT and TT (anti-factor IIa); format: in vivo, healthy male subjects
Procedure: The secondary endpoints included other PK parameters and the effects of clopidogrel on the PD of dabigatran assessed by ECT, aPTT, TT (including maximum effect ratio, ERmax) as well as the CBT.
Calibration curves for clopidogrel and SR26334 covered concentration ranges of 0.01–10 ng/mL and 0.02–20 μg/mL, respectively, with an inaccuracy generally below 4% and imprecision below 9%. For blood coagulation parameters aPTT, ECT, and TT (PD analyses), ∼3 mL of blood were collected in sodium citrate monovettes at the time points indicated for PK analyses. The blood samples were centrifuged, frozen, and stored at −20°C or below. The aPTT, ECT, and TT parameters were analyzed on an MC10PLUS coagulometer using validated methods by BiochemA, Riegel, Germany. aPTT was measured using a kit from Roche Diagnostics (Mannheim, Germany) according to manufacturer’s instructions, and the ECT assay utilized ecarin from Pentapharm (Basel, Switzerland). Thrombin inhibition (TT), anti-factor IIa, was measured by the Hemoclot Thrombin Inhibitors Assay® (Hemoclot® TT #CK002K, HYPHEN BioMed, Neuville-sur-Oise, France) according to the manufacturer’s instructions. The Hemoclot kit was used for the quantitative measurement of direct thrombin inhibitors in plasma, with a clotting method based on the inhibition of a constant and defined concentration of thrombin.
AUEC and ERmax of aPTT, ECT, and TT as well as CBT, and safety and tolerability were assessed descriptively as secondary parameters.

[5] = test system: P-gp; details: cited from earlier work
[6] = cited from earlier work; remark: listed apart in the source
[7] = Safety and tolerability assessment; format: in vivo, healthy male subjects
[8] = test system: ADP-induced platelet aggregation; experiment: ADP-induced inhibition of platelet aggregation (light transmission aggregometry in citrated PRP); format: in vivo, healthy male subjects; details: for Emax: Homo sapiens, Platelet
Procedure: The primary endpoints for PD were area under the effect curve of ADP-induced inhibition of platelet aggregation (IPA) at steady state of clopidogrel over one dosing interval from 0–24 h after dosing (AUECIPA,τ,ss); maximum percentage change compared with baseline in ADP-induced platelet aggregation at steady state of clopidogrel (Emax,IPA,ss); AUEC from 0 to 24 h (AUECIPA,0–24) after the loading dose of clopidogrel 600 mg; and the maximum percentage change compared with baseline in ADP-induced platelet aggregation from 0 to 24 h (Emax,IPA,0–24) after the loading dose of clopidogrel 600 mg.
The following PD parameters were also evaluated: • For clopidogrel, ADP-induced IPA was determined at predefined time points. • Capillary bleeding times were assessed (part 2 and part 3 of the study) before clopidogrel administration, 2, 4, and 12 h after clopidogrel administration, and following administration of dabigatran etexilate alone.
For platelet aggregation testing, ∼9 mL of blood was collected into a 10 mL monovette containing citrate to yield a final concentration of 10.6 mM. Platelet-rich plasma (PRP) was prepared by centrifugation and removed from the red-cell sediment. Approximately 0.5 mL platelet-poor plasma (PPP) was prepared from PRP by further centrifugation. Inhibition of platelet aggregation was performed by light transmission aggregometry in citrated PRP, using an 8-channel platelet aggregation profiler (PAP 8) aggregometer (möLab, Germany). The PRP (0% light transmission) and PPP (100% light transmission) served as reference. After baseline adjustment, ADP in a final concentration of 20 μM was added and aggregation recorded for 6 min. Maximum aggregation (%) within the first 6 min after addition of ADP was determined.

[9] = part 2, clopidogrel 75 mg qd + DE 150 mg bid vs clopidogrel 75 mg qd
[10] = part 2, reference: clopidogrel 75 mg qd alone, n=23
[11] = part 2, test: clopidogrel 75 mg qd + DE 150 mg bid, n=21, clopidogrel metabolite
[12] = part 3, DE 150 mg bid + clopidogrel 600 mg vs clopidogrel 600 mg
[13] = male, human, in vivo, po, 75 mg
[14] = male, human, in vivo, po, 600 mg
[15] = part 3, clopidogrel 600 mg + DE 150 mg bid vs clopidogrel 600 mg
[16] = part 3, reference: clopidogrel 600 mg single dose, n 12

## [H]/N=C(/N)c1ccc(NCc2nc3cc(C(=O)N(CCC(=O)O)c4ccccn4)ccc3n2C)cc1 [dabigatran]
[1]
  glucuronide conjugates as share of total dabigatran in plasma: about 20%
[1]; multiple-dose administration
  half-life: 14 to 17 h
[1]; single-dose administration
  half-life: 8 to 10 h
[2]
  maximum capillary bleeding time (CBT): did not prolong
[3]; male, human, in vivo
  increase in bioavailability (AUCτ,ss): 32%
[4]; part 1, single dose clopidogrel 300 mg added to steady-state DE 150 mg bid
  effect on coagulation parameters (aPTT, ECT, anti-factor IIa) when clopidogrel added: slightly increased
[5]
  substrate for P-gp: not

## O=C(O)[C@H](c1ccccc1Cl)N1CCc2sccc2C1 [SR26334]
[3]; part 1, clopidogrel 300 mg single dose with DE 150 mg bid
  AUC0–24: 35,400 pg h/mL
[3]; [9]
  AUCτ,ss ratio test/reference, gMean: 110%
  Cmax,ss ratio test/reference, gMean: 103%
[3]; [10]
  AUCτ,ss, gMean: 8008 ng·h/mL
  Cmax,ss, gMean: 2689 ng/mL
[3]; [11]
  AUCτ,ss, gMean: 8807 ng·h/mL
  Cmax,ss, gMean: 2760 ng/mL
[3]; [12]
  AUC0-24 ratio test/reference, gMean: 97.8%
  Cmax ratio test/reference, gMean: 85.7%
[3]; part 3, reference: clopidogrel 600 mg alone, n=12
  AUC0-24, gMean: 84.3 ng·h/mL
[3]; part 3, test: DE 150 mg bid + single dose clopidogrel 600 mg
  AUC0-24, gMean: 82.5 ng·h/mL

## CCOC(=O)CN[C@@H](C(=O)N1CC[C@H]1C(=O)NCc1ccc(/C(N)=N\O)cc1)C1CCCCC1 [ximelagatran]
[6]; phase I trial, in combination with acetylsalicylic acid (ASA) compared with ASA alone
  further prolongation of CBT: about 40%

## CCCCCCOC(=O)NC(=N)c1ccc(NCc2nc3cc(C(=O)N(CCC(=O)OCC)c4ccccn4)ccc3n2C)cc1 [dabigatran etexilate]
[7]; given alone or in combination with clopidogrel
  overall safety: did not seem to cause any safety issues
[2]; part 3, DE 150 mg bid with clopidogrel 600 mg vs single dose clopidogrel 600 mg alone
  CBT on coadministration compared with clopidogrel alone: did not increase
[4]; part 1, DE 150 mg bid steady state with single dose clopidogrel 300 mg vs DE alone
  increase in gMean AUECτ,ss of aPTT: about 30%
[4]; part 2, clopidogrel 75 mg qd (300 mg loading dose) + DE 150 mg bid
  AUEC τ,ss and ERmax,ss of TT, ECT and aPTT after concomitant administration: not altered
[4]; part 3, DE 150 mg bid with single dose clopidogrel 600 mg vs DE alone
  change in AUECτ,ss of aPTT: approximately 36.5%
[4]; part 3, single dose clopidogrel 600 mg coadministered with DE 150 mg bid
  dabigatran-related effect on TT, ECT and aPTT when clopidogrel coadministered: slightly increased
[5]
  substrate for P-gp: is a substrate for P-gp
[8]; DE 150 mg coadministered, after single dose clopidogrel 300 mg
  effect of coadministration on maximum ADP-dependent platelet aggregation achieved after clopidogrel: did not alter

## COC(=O)[C@H](c1ccccc1Cl)N1CCc2sccc2C1 [Clopidogrel, clopidogrel]
[7]; one subject each, parts 2 and 3
  AEs considered related to the study drugs: hematoma
[2]
  maximum capillary bleeding time (CBT): prolonged
[3]; [13]
  AUCτ,ss, gMean: 1400^b pg·h/mL
  Cmax,ss, gMean: 0.625 ng/mL
[3]; [14]
  AUC0-24, gMean: 10.574 ng·h/mL
  CL/Fss, gMean: 911000 mL/min
  Cmax, gMean: 4.013 ng/mL
[4]; part 2, DE given alone or in combination with clopidogrel
  effect on dabigatran PK/PD relationship (TT, ECT, aPTT vs plasma concentration): No effect
[6]
  bleeding time, overall least square means: 1.96 times baseline
[5]
  substrate of P-gp: substrate of P-gp
[8]; part 1, after single dose clopidogrel 300 mg, data not shown, read-out: maximum inhibition of ADP-dependent platelet aggregation (Emax)
  Emax: ~50%
[8]; part 2, reference: clopidogrel 75 mg qd, n 23, read-out: Emax, ss, mean (maximum percentage change in ADP-induced platelet aggregation)
  Emax: 58.8%
[8]; part 2, test: clopidogrel 75 mg qd + DE 150 mg bid, n 21, read-out: Emax, ss, mean (maximum percentage change in ADP-induced platelet aggregation)
  Emax: 55.1%
[8]; part 3, reference: clopidogrel 600 mg single dose, n 12, read-out: Emax, mean (maximum percentage change in ADP-induced platelet aggregation)
  Emax: ~60%
[8]; part 3, test: clopidogrel 600 mg + DE 150 mg bid, n 11, read-out: Emax, mean (maximum percentage change in ADP-induced platelet aggregation)
  Emax: 66.8%
[8]; [9]
  AUECIPA, τ,ss difference test – reference: −39.7 %·h
  AUECIPA, τ,ss difference test – reference, relative: −8.0%
[8]; part 2, reference: clopidogrel 75 mg qd, n 21
  AUECIPA, τ,ss, mean: 496 %·h
[8]; part 2, test: clopidogrel 75 mg qd + DE 150 mg bid, n 21
  AUECIPA, τ,ss, mean: 456 %·h
[8]; [15]
  AUEC0–24h difference test – reference: −84.6 %·h
  AUEC0–24h difference test – reference, relative: −6.7%
[8]; [16]
  AUEC0–24h of IPA, mean: 1264 %·h
  Emax, mean (maximum percentage change in ADP-induced platelet aggregation): 66.0%
[8]; part 3, reference: clopidogrel 600 mg single dose, n 12, listed as clopidogrel
  AUEC0–24h of IPA, mean: 1,264 %·h
[8]; part 3, test: clopidogrel 600 mg + DE 150 mg bid, n 11
  AUEC0–24h of IPA, mean: 1179 %·h
[8]; part 3, test: clopidogrel 600 mg + DE 150 mg bid, n 11, listed as clopidogrel
  AUEC0–24h of IPA, mean: 1,179 %·h

## O=C(NC[C@H]1CN(c2ccc(N3CCOCC3=O)cc2)C(=O)O1)c1ccc(Cl)s1 [rivaroxaban]
[6]
  bleeding time, overall least square means: 1.13 times baseline
